Experimental data from US4992466A, “Polycyclic ether antibiotic” (Pfizer Inc., priority 1986, dated 1991).
Converted amounts (≈) assume the structure as drawn. Where two headings read alike, the source gives them in different places.

Assays:
Clostridium perfringens = assay: microbe, parasite or virus in culture; assay type: cell-based; settings: 24 h
Actinomyces pyogenes = assay: in vitro antibacterial MIC (tube dilution, 24 hours); assay type: cell-based
Procedure: (§1) In Table I, below, the results of in vitro tests are summarized. For this test each organism is inoculated in a series of test tubes containing nutrient medium and varying concentrations of Antibiotic UK No.-61,689 to determine the minimal concentration of the compound in μg./ml. which inhibits the growth of the organism over a period of 24 hours (MIC).

Treponema hyodysenteriae = assay: as above; assay type: cell-based; settings: Brachyspira hyodysenteriae
Procedure: as §1

rumen fluid = assay: in vitro rumen technique, propionic acid production; assay type: cell-based, cow; settings: 20 micrograms per milliliter, 39° C., about 16 hours, read-out: increase in the production of propionic acid over control solution
Procedure: The value of animal feeds has generally been determined directly by feeding the animal. British Patent Specification No. 1,197,826 details an in vitro rumen technique whereby the changes occurring in feed brought about by microorganisms are measured more readily and with great accuracy in the evaluation of animal feeds. This technique involves the use of an apparatus in which the digestive processes of the animals are conducted and studied in vitro. The animal feeds, rumen inoculum and various growth promotants are introduced into and withdrawn from a laboratory unit under carefully controlled conditions and the changes taking place are studied critically and progressively during the consumption of the feed by the microorganisms. […] The change in propionic acid content is expressed as percent of the propionic acid content found in the control rumen fluid. Long term in vivo feeding studies are used to show a reliable correlation between propionic acid increase in the rumen fluid and improved animal performance. […]
After incubation, 5 ml. of the sample is mixed with 1 ml. of 25% metaphosphoric acid. […] Samples are then analyzed by gas-liquid chromatography by the method of D. W. Kellog, J. Dairy Science, 52, 1690, 1969. Peak heights for acetic, propionic and butyric acids are determined for samples from untreated and treated incubation flasks.

coccidial infections = assay: activity against coccidial infections in poultry (lesion scores); settings: in diet of chickens
Eimeria tenella = assay: efficacy against coccidial infection in chickens (lesion scores); settings: in diet of chickens at 15 to 120 ppm; six days
E. acervulina = assay: as above; settings: in diet of chickens at 15 to 120 ppm; five days
E. maxima = assay: as above; settings: in diet of chickens at 15 to 120 ppm; six days
E. brunetti = assay: as above; settings: in diet of chickens at 15 to 120 ppm; six days
E. necatrix = assay: as above; settings: in diet of chickens at 15 to 120 ppm; six days

COC1CCC(OC2CC(C3OC(C)(O)C(C)CC3C)OC2C2(C)CCC(C3(C)CCC4(CC(O)C(C)C(C(C)C5OC(O)(CC(=O)O)C(C)C(O)C5OC)O4)O3)O2)OC1C (stereo not shown) [Antibiotic UK No.-61,689]
MIC (Clostridium perfringens; strain 10A006): 25 µg/mL (≈ 28.6 µM)
MIC (Clostridium perfringens; strain 10A009): 3.12 µg/mL (≈ 3.57 µM)
MIC (Actinomyces pyogenes; Trueperella pyogenes, strain 14D002, read-out: MIC): 0.39 µg/mL (≈ 0.447 µM)
MIC (Actinomyces pyogenes; strain 14D008): 0.39 µg/mL (≈ 0.447 µM)
MIC (Actinomyces pyogenes; strain 14D011): 0.39 µg/mL (≈ 0.447 µM)
MIC (Treponema hyodysenteriae; strain 94A001): 6.25 µg/mL (≈ 7.16 µM)
MIC (Treponema hyodysenteriae; strain 94A002): 6.25 µg/mL (≈ 7.16 µM)
MIC (Treponema hyodysenteriae; strain 94A007): 3.12 µg/mL (≈ 3.57 µM)
MIC (Treponema hyodysenteriae; strain 94A008): 3.12 µg/mL (≈ 3.57 µM)
activation at 20 µg/mL (rumen fluid): ~80%
activity against coccidial infections in poultry (coccidial infections): excellent activity
controlling infections due to Eimeria tenella (Eimeria tenella): effective in controlling infections
controlling infections due to E. acervulina (E. acervulina): effective in controlling infections
controlling infections due to E. maxima (E. maxima): effective in controlling infections
controlling infections due to E. brunetti (E. brunetti): effective in controlling infections
controlling infections due to E. necatrix (E. necatrix): effective in controlling infections
